Measured values as given in ChEMBL document CHEMBL1201862, “PubChem BioAssay data set” (2004).
Activity calls are given as the source filed them.

How the values were obtained:
[1] = Luminescence Cell-Based Dose Retest to Confirm Inhibitors of Cancer Stem Cells. [Related pubchem assays (depositor defined):AID2717, AID2721]; format: functional; settings: Homo sapiens
Coagulation factor XII = biological target: T1, Coagulation factor XII (Homo sapiens, UniProt P00748); format: functional;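 further: activated factor XIIa alpha cleaving a fluorogenic AMC peptide substrate; inhibitor potency from loss of enzyme activity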
T1 sequence (P00748 whole entry): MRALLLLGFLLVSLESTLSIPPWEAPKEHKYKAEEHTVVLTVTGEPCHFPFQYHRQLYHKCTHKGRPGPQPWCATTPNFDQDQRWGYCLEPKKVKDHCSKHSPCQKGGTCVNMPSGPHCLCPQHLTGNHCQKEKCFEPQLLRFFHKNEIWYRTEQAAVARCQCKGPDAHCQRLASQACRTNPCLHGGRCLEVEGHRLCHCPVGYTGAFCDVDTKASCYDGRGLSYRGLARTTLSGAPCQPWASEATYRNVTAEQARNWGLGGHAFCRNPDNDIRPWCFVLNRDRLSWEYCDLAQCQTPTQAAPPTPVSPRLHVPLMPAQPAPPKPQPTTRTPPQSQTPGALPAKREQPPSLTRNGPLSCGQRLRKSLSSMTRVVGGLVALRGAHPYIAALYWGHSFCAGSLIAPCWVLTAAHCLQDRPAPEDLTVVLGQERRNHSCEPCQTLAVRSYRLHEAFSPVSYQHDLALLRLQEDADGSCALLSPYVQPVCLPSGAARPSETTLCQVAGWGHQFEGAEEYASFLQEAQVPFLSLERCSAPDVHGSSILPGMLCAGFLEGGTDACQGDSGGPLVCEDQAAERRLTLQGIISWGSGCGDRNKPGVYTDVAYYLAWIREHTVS

[2] = biological target: T2, Heat shock factor protein 1 (Mus musculus, UniProt P38532); test: HSF1 potentiators in luciferase reporter cells, confirmation, cell-based, NIH3T3, luminescence, dose retest (AID 435004); format: functional;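 further: stress induced by proteasome inhibitor MG132 added 30 min after compound; luciferase reporter driven by HSF1 response element in NIH3T3 cells; actives raise luminescence as potentiators of the MG132 stress response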
T2 sequence (P38532 whole entry): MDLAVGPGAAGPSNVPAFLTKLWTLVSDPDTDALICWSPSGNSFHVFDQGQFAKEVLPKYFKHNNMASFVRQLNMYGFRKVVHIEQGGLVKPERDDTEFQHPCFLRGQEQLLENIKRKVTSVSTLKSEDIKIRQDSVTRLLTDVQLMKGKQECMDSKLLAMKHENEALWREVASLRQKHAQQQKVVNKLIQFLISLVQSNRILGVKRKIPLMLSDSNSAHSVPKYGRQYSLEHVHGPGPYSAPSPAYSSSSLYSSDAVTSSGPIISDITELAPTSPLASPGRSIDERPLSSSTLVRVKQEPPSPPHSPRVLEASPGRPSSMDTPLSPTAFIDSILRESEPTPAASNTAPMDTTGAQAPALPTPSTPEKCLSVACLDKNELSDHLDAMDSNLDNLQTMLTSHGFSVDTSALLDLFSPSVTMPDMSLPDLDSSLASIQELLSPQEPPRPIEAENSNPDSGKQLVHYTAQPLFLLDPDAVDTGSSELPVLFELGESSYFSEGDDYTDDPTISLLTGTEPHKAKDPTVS

[3] = biological target: T3, Voltage-gated N-type calcium channel alpha-1B subunit/Amyloid beta A4 precursor protein-binding family A member 1 (Homo sapiens, UniProt Q00975+Q02410); format: protein assay
T3 sequence (Q00975 whole entry): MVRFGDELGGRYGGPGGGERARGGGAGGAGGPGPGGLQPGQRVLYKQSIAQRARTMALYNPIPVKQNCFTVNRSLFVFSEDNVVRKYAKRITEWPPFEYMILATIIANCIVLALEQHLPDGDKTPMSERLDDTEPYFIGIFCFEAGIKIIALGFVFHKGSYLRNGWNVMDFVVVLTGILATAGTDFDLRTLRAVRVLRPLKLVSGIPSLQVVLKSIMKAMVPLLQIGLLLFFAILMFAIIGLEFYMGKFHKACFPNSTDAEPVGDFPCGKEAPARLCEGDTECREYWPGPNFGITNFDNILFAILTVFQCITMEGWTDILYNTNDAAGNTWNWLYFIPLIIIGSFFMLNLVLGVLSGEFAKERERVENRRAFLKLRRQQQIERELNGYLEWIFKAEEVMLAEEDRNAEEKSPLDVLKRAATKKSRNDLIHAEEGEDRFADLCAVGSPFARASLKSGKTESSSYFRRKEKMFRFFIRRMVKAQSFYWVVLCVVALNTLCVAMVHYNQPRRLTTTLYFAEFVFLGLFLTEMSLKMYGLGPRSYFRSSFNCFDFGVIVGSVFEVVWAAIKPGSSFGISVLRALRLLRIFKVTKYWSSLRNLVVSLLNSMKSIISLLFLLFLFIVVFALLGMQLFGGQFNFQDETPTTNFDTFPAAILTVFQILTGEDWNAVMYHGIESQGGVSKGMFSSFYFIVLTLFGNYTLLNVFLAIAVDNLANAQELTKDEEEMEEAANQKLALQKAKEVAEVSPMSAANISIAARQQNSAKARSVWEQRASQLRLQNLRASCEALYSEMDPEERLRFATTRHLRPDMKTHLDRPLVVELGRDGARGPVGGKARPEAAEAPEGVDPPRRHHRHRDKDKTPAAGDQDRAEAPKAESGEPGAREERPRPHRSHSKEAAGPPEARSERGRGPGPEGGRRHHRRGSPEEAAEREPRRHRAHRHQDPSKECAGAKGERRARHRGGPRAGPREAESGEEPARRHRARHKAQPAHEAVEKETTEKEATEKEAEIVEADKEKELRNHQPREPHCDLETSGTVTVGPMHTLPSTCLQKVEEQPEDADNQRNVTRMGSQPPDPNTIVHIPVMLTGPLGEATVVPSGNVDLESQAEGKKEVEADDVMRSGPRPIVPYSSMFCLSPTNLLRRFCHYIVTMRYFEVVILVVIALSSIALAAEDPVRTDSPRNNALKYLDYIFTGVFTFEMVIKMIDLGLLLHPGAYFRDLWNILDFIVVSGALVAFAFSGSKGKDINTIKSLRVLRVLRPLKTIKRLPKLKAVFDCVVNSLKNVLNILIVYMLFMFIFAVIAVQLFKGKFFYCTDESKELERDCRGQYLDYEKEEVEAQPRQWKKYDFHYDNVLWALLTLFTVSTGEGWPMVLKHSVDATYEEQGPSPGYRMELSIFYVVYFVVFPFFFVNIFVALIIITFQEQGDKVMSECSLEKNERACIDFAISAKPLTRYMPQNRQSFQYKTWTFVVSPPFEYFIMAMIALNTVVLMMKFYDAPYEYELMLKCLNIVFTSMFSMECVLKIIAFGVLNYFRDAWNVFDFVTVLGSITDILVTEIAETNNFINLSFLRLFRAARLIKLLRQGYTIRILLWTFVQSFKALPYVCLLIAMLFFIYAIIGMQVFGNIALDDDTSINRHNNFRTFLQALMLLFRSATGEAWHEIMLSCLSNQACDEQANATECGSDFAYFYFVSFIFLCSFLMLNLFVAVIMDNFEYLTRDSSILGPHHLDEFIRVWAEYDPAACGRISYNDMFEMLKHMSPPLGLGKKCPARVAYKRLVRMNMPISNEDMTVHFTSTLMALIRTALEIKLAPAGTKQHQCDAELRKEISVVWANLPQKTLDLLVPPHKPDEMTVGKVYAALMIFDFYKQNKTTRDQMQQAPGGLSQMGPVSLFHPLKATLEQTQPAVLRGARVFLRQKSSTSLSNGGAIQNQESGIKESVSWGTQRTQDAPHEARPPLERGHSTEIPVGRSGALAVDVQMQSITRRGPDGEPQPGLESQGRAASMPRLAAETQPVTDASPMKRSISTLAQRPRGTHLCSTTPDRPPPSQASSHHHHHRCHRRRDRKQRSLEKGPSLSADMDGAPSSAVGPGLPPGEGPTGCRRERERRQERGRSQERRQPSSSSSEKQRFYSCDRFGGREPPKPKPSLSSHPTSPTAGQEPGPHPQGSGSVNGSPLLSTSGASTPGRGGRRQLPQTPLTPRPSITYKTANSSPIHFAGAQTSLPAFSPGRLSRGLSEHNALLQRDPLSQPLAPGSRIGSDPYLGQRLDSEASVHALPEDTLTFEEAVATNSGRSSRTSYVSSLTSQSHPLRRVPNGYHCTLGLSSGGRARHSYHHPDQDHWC
T3 sequence (Q02410 whole entry): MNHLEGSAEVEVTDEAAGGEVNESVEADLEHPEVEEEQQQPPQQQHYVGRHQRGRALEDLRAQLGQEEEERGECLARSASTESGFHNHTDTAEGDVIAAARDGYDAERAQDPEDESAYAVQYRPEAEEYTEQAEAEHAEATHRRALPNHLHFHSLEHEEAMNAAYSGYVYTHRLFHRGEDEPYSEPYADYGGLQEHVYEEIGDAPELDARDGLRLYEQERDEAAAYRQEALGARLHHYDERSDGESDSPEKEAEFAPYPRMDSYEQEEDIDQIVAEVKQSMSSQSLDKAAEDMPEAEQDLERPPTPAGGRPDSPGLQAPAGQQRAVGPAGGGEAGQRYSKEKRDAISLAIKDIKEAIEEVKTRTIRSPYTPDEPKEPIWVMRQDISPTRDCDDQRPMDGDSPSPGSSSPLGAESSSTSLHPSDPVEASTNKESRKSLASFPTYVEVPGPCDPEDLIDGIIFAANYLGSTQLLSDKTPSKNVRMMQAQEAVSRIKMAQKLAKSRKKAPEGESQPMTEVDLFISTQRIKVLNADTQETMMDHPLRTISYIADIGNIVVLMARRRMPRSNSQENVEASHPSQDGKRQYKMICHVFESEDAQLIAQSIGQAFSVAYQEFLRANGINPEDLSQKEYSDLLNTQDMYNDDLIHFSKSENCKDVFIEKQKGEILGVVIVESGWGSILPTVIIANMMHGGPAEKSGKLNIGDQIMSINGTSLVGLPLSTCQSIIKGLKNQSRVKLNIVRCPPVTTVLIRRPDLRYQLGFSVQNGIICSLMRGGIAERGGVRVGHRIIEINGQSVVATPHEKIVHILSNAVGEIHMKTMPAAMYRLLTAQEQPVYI

[4] = biological target: T3, Voltage-gated N-type calcium channel alpha-1B subunit/Amyloid beta A4 precursor protein-binding family A member 1; format: protein assay; remark: listed apart in the source
[5] = biological target: DNA dC->dU-editing enzyme APOBEC-3A (Homo sapiens, UniProt P31941); test: APOBEC3A DNA deaminase inhibitors, dose response, biochemical (AID 504722); format: functional
DNA dC->dU-editing enzyme APOBEC-3A, sequence (P31941 whole entry): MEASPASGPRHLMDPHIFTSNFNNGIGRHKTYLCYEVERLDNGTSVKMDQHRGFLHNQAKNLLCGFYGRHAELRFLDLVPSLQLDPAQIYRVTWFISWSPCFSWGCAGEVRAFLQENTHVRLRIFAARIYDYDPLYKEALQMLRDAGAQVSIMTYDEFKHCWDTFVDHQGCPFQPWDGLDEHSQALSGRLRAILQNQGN

[6] = biological target: DNA dC->dU-editing enzyme APOBEC-3G (Homo sapiens, UniProt Q9HC16); test: Dose Response confirmation of small molecule APOBEC3G DNA Deaminase Inhibitors via a fluorescence-based single-stranded DNA deaminase assay. [Related pubchem assays (depositor defined):AID493012, AID493028]; format: functional
[7] = biological target: T4, Intestinal-type alkaline phosphatase (Homo sapiens, UniProt P09923); test: Dose Response confirmation of uHTS hits from a small molecule inhibitors of human intestinal alkaline phosphatase via a luminescent assay. [Related pubchem assays (depositor defined):AID2544, AID2574]; format: functional
T4 sequence (P09923 whole entry): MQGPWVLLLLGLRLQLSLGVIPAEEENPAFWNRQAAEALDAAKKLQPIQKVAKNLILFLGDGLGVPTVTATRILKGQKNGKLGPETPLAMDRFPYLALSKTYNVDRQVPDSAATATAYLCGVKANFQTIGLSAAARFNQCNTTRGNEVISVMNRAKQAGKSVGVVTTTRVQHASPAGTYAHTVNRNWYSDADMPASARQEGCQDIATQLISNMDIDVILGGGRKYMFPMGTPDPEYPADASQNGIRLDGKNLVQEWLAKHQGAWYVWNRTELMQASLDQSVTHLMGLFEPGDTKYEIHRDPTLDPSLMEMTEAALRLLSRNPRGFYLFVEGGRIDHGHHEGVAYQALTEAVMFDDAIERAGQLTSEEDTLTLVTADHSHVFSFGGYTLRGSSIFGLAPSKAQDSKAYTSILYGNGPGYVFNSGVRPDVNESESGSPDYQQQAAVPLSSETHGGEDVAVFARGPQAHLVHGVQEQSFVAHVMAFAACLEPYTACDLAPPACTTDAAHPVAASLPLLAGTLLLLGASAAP

[8] = biological target: T4, Intestinal-type alkaline phosphatase; test: human intestinal alkaline phosphatase activators, dose response, biochemical, luminescence, uHTS hits (AID 463120); format: functional
[9] = THP-1 cell cytotoxicity, dose response, cytotoxicity control for non-replicating M. tuberculosis project (AID 489025); format: functional
[10] = HepG2 cell cytotoxicity, dose response, cytotoxicity control for non-replicating M. tuberculosis project (AID 489018); format: functional; settings: Mycobacterium tuberculosis
cells = format: functional
[11] = biological target: DNA damage-inducible transcript 3 protein (Mus musculus, UniProt P35639); format: functional, Cricetulus griseus
DNA damage-inducible transcript 3 protein, sequence (P35639 whole entry): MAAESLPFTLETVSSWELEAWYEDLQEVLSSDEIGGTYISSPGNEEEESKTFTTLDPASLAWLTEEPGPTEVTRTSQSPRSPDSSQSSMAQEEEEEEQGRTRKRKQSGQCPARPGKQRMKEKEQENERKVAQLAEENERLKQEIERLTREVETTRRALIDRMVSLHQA

[12] = biological target: Glyceraldehyde-3-phosphate dehydrogenase (Homo sapiens, UniProt P04406)
Glyceraldehyde-3-phosphate dehydrogenase, sequence (P04406 whole entry): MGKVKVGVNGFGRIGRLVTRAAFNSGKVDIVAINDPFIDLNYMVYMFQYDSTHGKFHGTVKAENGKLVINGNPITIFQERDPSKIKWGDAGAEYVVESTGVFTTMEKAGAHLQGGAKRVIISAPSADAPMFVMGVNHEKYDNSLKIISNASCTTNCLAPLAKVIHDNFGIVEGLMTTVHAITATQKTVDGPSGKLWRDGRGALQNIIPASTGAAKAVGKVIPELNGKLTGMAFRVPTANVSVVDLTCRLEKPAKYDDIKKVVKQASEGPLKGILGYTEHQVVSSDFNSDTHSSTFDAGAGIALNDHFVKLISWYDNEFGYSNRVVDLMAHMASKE

[13] = biological target: Alkaline phosphatase, placental type (Homo sapiens, UniProt P05187); test: PLAP enzyme inhibitors, confirmation, biochemical, luminescence (AID 1512); format: functional
Alkaline phosphatase, placental type, sequence (P05187 whole entry): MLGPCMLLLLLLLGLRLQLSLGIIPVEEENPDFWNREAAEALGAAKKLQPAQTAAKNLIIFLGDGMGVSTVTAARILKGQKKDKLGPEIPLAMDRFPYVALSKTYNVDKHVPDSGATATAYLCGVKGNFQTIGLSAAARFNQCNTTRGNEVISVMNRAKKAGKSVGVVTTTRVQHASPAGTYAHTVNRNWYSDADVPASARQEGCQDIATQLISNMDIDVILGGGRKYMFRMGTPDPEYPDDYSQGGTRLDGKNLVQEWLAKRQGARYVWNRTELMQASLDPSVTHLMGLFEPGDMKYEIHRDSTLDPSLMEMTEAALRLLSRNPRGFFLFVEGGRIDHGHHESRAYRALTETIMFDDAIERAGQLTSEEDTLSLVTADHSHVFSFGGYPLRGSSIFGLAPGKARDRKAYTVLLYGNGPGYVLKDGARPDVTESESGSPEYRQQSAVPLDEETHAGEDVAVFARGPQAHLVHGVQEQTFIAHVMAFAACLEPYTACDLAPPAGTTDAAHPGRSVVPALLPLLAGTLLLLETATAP

[14] = biological target: T5, Alkaline phosphatase, tissue-nonspecific isozyme (Homo sapiens, UniProt P05186); test: human TNAP enzyme inhibitors, SAR follow-up, biochemical, luminescent, dose response (AID 1056)
T5 sequence (P05186 whole entry): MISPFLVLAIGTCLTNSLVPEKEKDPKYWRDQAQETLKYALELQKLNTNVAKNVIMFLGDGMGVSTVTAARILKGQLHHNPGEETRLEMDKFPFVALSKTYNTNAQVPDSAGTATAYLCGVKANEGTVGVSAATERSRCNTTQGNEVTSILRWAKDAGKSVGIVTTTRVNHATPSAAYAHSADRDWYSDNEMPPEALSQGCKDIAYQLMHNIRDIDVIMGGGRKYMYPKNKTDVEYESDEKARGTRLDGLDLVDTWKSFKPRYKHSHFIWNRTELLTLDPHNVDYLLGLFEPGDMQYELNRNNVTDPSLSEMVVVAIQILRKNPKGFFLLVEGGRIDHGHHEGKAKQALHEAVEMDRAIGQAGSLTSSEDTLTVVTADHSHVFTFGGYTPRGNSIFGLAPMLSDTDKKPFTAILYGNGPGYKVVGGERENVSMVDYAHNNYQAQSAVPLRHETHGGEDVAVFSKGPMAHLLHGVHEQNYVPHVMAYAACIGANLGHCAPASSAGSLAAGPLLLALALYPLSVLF

HEK293 [15] = test: NOD1 signaling inhibitors, primary screen, cell-based, luminescence, uHTS (AID 1578); format: functional; settings: Homo sapiens
HEK293 [16] = test: cells; format: functional, cell-based; settings: Homo sapiens
HEK293 [17] = test: cells; format: functional, cell-based; settings: Homo sapiens; remark: listed apart in the source
[18] = biological target: Nucleotide-binding oligomerization domain-containing protein 2 (Homo sapiens, UniProt Q9HC29); test: NOD2 signaling inhibitors, cell-based, luminescence, uHTS, HEK293 (AID 1566); format: functional
HEK293 [19] = test: NOD2 signaling inhibitors in MDP-stimulated cells, cell-based, uHTS, luminescence (AID 2001); format: functional; settings: Homo sapiens
HEK293 [20] = test: cells; format: functional, cell-based; settings: Homo sapiens; remark: listed apart in the source
[21] = microbe, parasite or virus in culture; format: functional; settings: Mycobacterium tuberculosis
[22] = Vero E6 cell cytotoxicity, dose response, cytotoxicity control for non-replicating M. tuberculosis project, secondary assay (AID 492998); format: functional, VeroE6; settings: Vero C1008
HEK293 [23] = test: inhibitors of LMP1-driven NF-kB reporter, dose response, cell-based, HEK293, luciferase, cherry-pick (AID 588343); format: functional; settings: Homo sapiens

## COc1ccc(C)cc1NC(=O)CSc1nnc(COc2ccc(Cl)cc2)n1Cc1ccco1
[1]
  AC50: 5.42 µM (active)
Coagulation factor XII
  IC50: > 50 µM (inactive)
[2]
  EC50: 259 µM (active)

## O=C1NC(=O)N(c2ccccc2)C(=O)/C1=C/c1ccc(Sc2ccccc2)o1
[3]
  IC50: 35.9 µM (active)
[4]
  IC50: 34.4 µM (active)

## CCN(CC)S(=O)(=O)c1cccc(-c2n[nH]c(=S)n2C)c1
[5]
  IC50: > 100 µM (inactive)
[6]
  IC50: 4.94 µM (active)

## CCc1nnc(NC(=O)CSc2nnc(C)c(=O)n2N)s1
[7]
  IC50: > 100 µM (inactive)
[8]
  EC50: > 100 µM (inactive)

## CC(C)C[C@H]1CN=C(Nc2ccccc2)N1CCCC1CCCCC1
[9]
  CC50: 16.2 µM (active)
[10]
  CC50: > 20 µM (active)
cells
  IC50: 40.1 µM (active)

## C=CCn1c(CCNC(=O)c2ccc(Cl)c(Cl)c2)nnc1SCCOc1ccc(OC)cc1
[2]
  EC50: 16.8 µM (active)
[11]
  Absolute IC50 (CHOP): 10 µM

## COc1ccccc1-c1nnc(SCC(=O)Nc2ccc(C)c(C)c2)[nH]1
[12]
  IC50: > 100 µM (not active)
[13]
  IC50: > 100 µM (inactive)
[14]
  IC50: > 100 µM (inactive)

## COc1cc(/C=C/C(=O)c2ccc(C)cc2)ccc1OCC#N
HEK293 [15]
  EC50: 4.61 µM (active)
HEK293 [16]
  IC50: 4.56 µM (active)
HEK293 [17]
  IC50: > 20 µM (inactive)
[18]
  EC50: > 20 µM (inactive)
HEK293 [19]
  IC50: 5.83 µM (active)
HEK293 [20]
  IC50: > 20 µM (inactive)

## S=C1SCN(Cc2ccco2)CN1Cc1ccco1
[21]
  CC50: 16.8 µM (active)
[9]
  CC50: 8.73 µM (active)
[22]
  CC50: 18.4 µM (active)
cells
  IC50: 22.4 µM (active)
HEK293 [23]
  AC50: 0.574 µM (active)
